From BigSolDB 2.1

CCOC(=O)c1ccc(N)cc1
solubility (mole fraction)
Conditions | in cyclohexane | in isopropyl myristate | in n-octanol | in water
298.15 K | 0.00107 | 0.0637 | 0.0628 | 0.000105
303.15 K | 0.00134 | 0.0764 | 0.0753 | 0.000126
308.15 K | 0.00185 | 0.102 | 0.0916 | 0.000159
313.15 K | 0.00225 | 0.121 | 0.113 | 0.000186
